Blank lines part the entries; values can stand above or below the compound they belong to. Where a SMILES comes first, the peptide text is derived from it. The star is where a group is joined. 5FAM = O=C1OC2(c3ccc(O)cc3Oc3cc(O)ccc32)c2ccc(C(=O)*)cc21
Assays:
MBP-SUFU-FL [1] = biological target: T1, MBP-SUFU-FL (Homo sapiens, UniProt Q9UMX1); assay: Microscale thermophoresis with FAM-GLI1p, MBP-SUFU-FL; conditions: binding to MBP-SUFU-FL; 50 nM FAM-GLI1p
T1 construct: containing residues 32–483 of human SUFU and a C-terminal hexahistidine tag; hexahistidine tag (C); made in house; host or cells: Escherichia coli JM109 (DE3)
T1 sequence (Q9UMX1 32-483, other chains not shown): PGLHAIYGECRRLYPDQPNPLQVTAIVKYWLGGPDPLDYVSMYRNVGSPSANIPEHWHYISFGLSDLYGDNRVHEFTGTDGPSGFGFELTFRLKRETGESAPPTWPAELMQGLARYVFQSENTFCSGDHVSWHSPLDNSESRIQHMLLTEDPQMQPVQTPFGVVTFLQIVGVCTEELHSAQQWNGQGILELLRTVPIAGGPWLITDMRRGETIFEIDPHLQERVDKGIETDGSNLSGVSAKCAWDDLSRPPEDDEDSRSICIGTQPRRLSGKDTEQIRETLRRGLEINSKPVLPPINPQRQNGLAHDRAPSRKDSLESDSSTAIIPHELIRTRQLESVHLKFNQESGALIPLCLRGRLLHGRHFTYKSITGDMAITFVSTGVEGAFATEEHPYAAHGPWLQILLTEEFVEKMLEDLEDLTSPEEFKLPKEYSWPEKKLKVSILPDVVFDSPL
Protocol: (§1) A 5-FAM-labelled peptide (FAM-GLI1p) comprising residues 115–131 of GLI1 (Supplementary Table S1b) was synthesized by Pepceuticals Ltd. A titration series of each recombinant protein was prepared by serial 1:1 dilutions in MST buffer (50 mM Tris–HCl pH 7.6, 150 mM NaCl, 10 mM MgCl2, 0.05% Tween-20) and mixed in a 1:1 ratio with FAM-GLI1p to give final concentrations of 50 nM FAM-GLI1p with MBP-SUFU constructs in the ranges 14.2–29 070 and 54–110 500 nM. Reactions were aspirated into glass capillaries and the thermophoretic movement of FAM-GLI1p was monitored using a Monolith NT.115 instrument (NanoTemper Technologies; Wienken et al., 2010[▶]), with a laser on for 30 s and off for 5 s and a laser power/voltage of 20% for MBP-SUFU-FL and the MBP-SUFU-FL mutants, 40% for MBP-SUFU-Δ and 80% for MBP-SUFU-SH. Fluorescence was measured before laser heating (F Cold) and after 30 s of laser-on time (F Hot). The normalized fluorescence F Hot/F Cold reflects the concentration ratio of labelled molecules. F Hot/F Cold was plotted directly and multiplied by a factor of […], yielding a relative change in fluorescence per thousand. K d was calculated from three independent thermophoresis measurements using NanoTemper software (NanoTemper Technologies).

MBP-SUFU-Δ = biological target: T2, MBP-SUFU-Δ (Homo sapiens, UniProt Q9UMX1, DEL285-359/L360P/P281R/P282G/R280S/S279P); assay: Microscale thermophoresis with FAM-GLI1p, MBP-SUFU-Δ; conditions: binding to MBP-SUFU-Δ; 50 nM FAM-GLI1p
T2 construct: subcloning different SUFU32–483 variants into vector pLJMBP4c; His tag (as in MBP-SUFU-FL; purified on HisTrap) (C); made in house; host or cells: Escherichia coli JM109 (DE3)
T2 sequence (Q9UMX1 with tags, fused parts or gaps S279P/R280S/P281R/P282G/DEL285-359/L360P limits assumed, other chains not shown): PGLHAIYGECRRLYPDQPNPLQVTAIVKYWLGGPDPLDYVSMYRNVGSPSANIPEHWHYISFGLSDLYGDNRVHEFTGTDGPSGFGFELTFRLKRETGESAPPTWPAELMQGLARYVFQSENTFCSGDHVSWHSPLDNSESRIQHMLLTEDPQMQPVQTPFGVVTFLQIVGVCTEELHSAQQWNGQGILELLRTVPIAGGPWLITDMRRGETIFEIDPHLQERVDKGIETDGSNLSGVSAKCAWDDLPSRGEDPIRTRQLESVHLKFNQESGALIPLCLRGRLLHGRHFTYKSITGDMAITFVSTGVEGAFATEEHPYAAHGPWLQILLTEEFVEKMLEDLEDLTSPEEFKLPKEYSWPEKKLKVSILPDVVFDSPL
Protocol: as §1

MBP-SUFU-SH = assay: Microscale thermophoresis with FAM-GLI1p, MBP-SUFU-SH; set-up: species or system human; conditions: binding to MBP-SUFU-SH; 50 nM FAM-GLI1p
Protocol: as §1

[2] = test system: Hh pathway, Sufu −/− MEFs with SUFU-FL; assay: Hh pathway reactivation in Sufu −/− MEFs expressing SUFU-FL; assay type: cell-based, mouse; conditions: 48–72 h, luciferase
Protocol: (§2) Sufu ^−/− mouse embryonic fibroblast (MEF) cells (Svärd et al., 2006[▶]) were transfected with a mixture of p8x3′Gli-BS LucII or p8x3′Gli-mBS LucII reporter constructs (Sasaki et al., 1997[▶]; generous gifts from Hiroshi Sasaki) together with pRL-SV40 (Promega) internal control using Lipofectamine LTX with Plus reagent (Invitrogen) according to the manufacturer’s instructions. Following transfection, Sufu ^−/− MEF cells were grown until the culture reached confluency (24–48 h) and the cells were then switched to low-serum medium (0.5% FBS) with 100–200 nM SAG (kindly provided by Jan Bergman, Karolinska Institutet), 10 µM purmorphamine (Calbiochem) or Shh conditioned medium (1:4) and grown for an additional 48–72 h. Cell lysis and luciferase activity measurements were performed using a Dual Luciferase Activity Assay Kit (Promega). For statistical evaluation of reporter gene assays, a one-tailed paired Student’s t-test was used. All activity measurements were performed at least three times in independent experiments.

[3] = test system: Hh pathway, Sufu −/− MEFs with SUFU-Δ; assay: Hh pathway reactivation in Sufu −/− MEFs expressing SUFU-Δ; assay type: cell-based, mouse; conditions: 48–72 h, luciferase
Protocol: as §2

[4] = test system: Hh pathway, Sufu −/− MEFs with SUFU-SH; assay: Hh pathway reactivation in Sufu −/− MEFs expressing SUFU-SH; assay type: cell-based, mouse; conditions: 48–72 h, luciferase
Protocol: as §2

[5] = test system: Hh pathway, Sufu −/− MEFs with SUFU-IDRfly; assay: Hh pathway reactivation in Sufu −/− MEFs expressing SUFU-IDRfly; assay type: cell-based, mouse; conditions: SAG 100–200 nM, 48–72 h, luciferase
Protocol: as §2

MBP-SUFU-FL [6] = biological target: T1, MBP-SUFU-FL; assay: HDX protection of MBP-SUFU-FL by GLI peptides; assay type: binding
Protocol: To compare amide HDX kinetics between MBP-SUFU-FL and MBP-SUFU-Δ, 4 µl of each protein (both at 11 mg ml^−1 in 50 mM Na HEPES pH 7.0, 50 mM NaCl, 5 mM β-mercaptoethanol, 1.5 mM maltose) was mixed with 13 µl deuterated buffer with the same ionic composition as the protein sample. For MBP-SUFU-FL–Gli3p interaction experiments, 45 µl MBP-SUFU-FL (11 mg ml^−1) was mixed with 5 µl Gli3p (6 mM; a 5.5-fold excess) and incubated for 1 h. In the latter case, exchange was initiated by mixing 4 µl MBP-SUFU-FL–Gli3p with 13 µl deuterated buffer with the same ionic composition as the sample. Each reaction was stopped by adding 9 µl quenching solution (4 M urea, 50 mM TCEP, 1% TFA) and flash-freezing in liquid N2. Deuteration reactions were incubated for 60, 300, 600 and 1800 s for the MBP-SUFU-FL and MBP-SUFU-Δ experiments and 300, 600 and 1800 s for the MBP-SUFU-FL–Gli3p interaction experiments (at 4°C, in triplicate). A 24 h incubation was used as a fully deuterated sample for back-exchange correction.
Samples were analyzed in a semi-automated HDX-MS system (Biomotif AB, Sweden) in which manually injected samples were automatically digested, cleaned and separated at 1.0°C. […]

[7] = purmorphamine 10 µM, p ≤ 0.05, n = 5

thermophoretic movement of the peptide on binding (MBP-SUFU-Δ): decreased it | thermophoretic movement of the peptide on binding (MBP-SUFU-SH): decreased it
Compound: CC[C@H](C)[C@H](NC(=O)[C@H](CO)NC(=O)[C@H](CC(C)C)NC(=O)[C@H](Cc1c[nH]cn1)NC(=O)CNC(=O)[C@H](Cc1ccc(O)cc1)NC(=O)[C@H](CO)NC(=O)CNC(=O)CNC(=O)[C@@H]1CCCN1C(=O)[C@H](CO)NC(=O)[C@@H](NC(=O)c1ccc2c(c1)C(=O)OC21c2ccc(O)cc2Oc2cc(O)ccc21)[C@@H](C)O)C(=O)NCC(=O)N[C@H](C(=O)N[C@@H](CCSC)C(=O)N[C@@H](CO)C(=O)N1CCC[C@H]1C(=O)O)[C@@H](C)O [FAM-GLI1p] (5FAM-TSPGGSYGHLSIGTMSP-OH; C-terminus assumed)
thermophoretic movement of the peptide on binding (MBP-SUFU-FL [1]): increased the rate of movement in the thermophoretic gradient

Compound: c1ccc2c(Oc3nc(Nc4ccc(N5CCOCC5)cc4)c4ncn(C5CCCCC5)c4n3)cccc2c1 [Purmorphamine]
pathway reactivation [2, 7]: the same disparate effects on SUFU-FL and SUFU-Δ repressive function | pathway reactivation [3, 7]: the same disparate effects on SUFU-FL and SUFU-Δ repressive function | pathway reactivation ([3]; purmorphamine 10 µM, p ≤ 0.05, n = 5, listed as purmorphamine): Lack of Hh pathway reactivation | pathway reactivation ([4]; purmorphamine 10 µM): Lack of Hh pathway reactivation

Compound: CNC1CCC(N(Cc2cccc(-c3ccncc3)c2)C(=O)c2sc3ccccc3c2Cl)CC1 (stereo not shown) [SAG]
pathway reactivation ([2]; SAG 100–200 nM): overrode repression by the full-length protein | pathway reactivation ([3]; SAG 100–200 nM, p ≤ 0.005, n = 10): failed to reactivate the pathway | pathway reactivation ([4]; SAG 100–200 nM, p ≤ 0.01, n = 4): failed to reactivate the pathway | pathway reactivation [5]: repression could not be relieved

Compound: GLI3p-SHC: GLI3 peptide that terminates at His336; residues 328–336 (SSASGSYGH)
protection of MBP-SUFU-FL from deuteration (HDX) (MBP-SUFU-FL [6]; GLI3 peptide that terminates at His336, data not shown): unable to protect MBP-SUFU-FL from deuteration

Compound: GLI3p: corresponding peptide from human GLI3; residues 328–344 (SSASGSYGHLSASAISP)
protection of MBP-SUFU-FL from deuteration (HDX) (MBP-SUFU-FL [6]; Gli3p 5.5-fold excess, 1 h pre-incubation, 300, 600 and 1800 s exchange at 4°C, in triplicate, LC-MS): more protected from exchange in the presence of the peptide

— article PMC3852661, “Structural basis of SUFU–GLI interaction in human Hedgehog signalling regulation” (Acta Crystallographica Section D: Biological Crystallography, 2013)
